Source: patent US20080009418A1, “Selective Inhibitors” (Alchemia LTD., priority 2004, published 2008)

Key:
Human Melanocortin (MC3) = molecular target: T1, Human Melanocortin (MC3) (Homo sapiens, UniProt P41968); assay: Radioligand binding, human melanocortin MC3 membranes, FlashPlate, [125I]-NDP-αMSH; settings: compound at 10 μM; human melanocortin MC3 membranes
T1 construct: purchased Perkin Elmer Biosignal
In short: (§1)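 Cloned human receptor membranes were coated onto FlashPlate wells and incubated with radioligand and compound (added from a 0.5 mM DMSO daughter plate) for 1 hour at room temperature in the dark. Scintillation counting gave percent inhibition, with DMSO defining total and reference ligand defining non-specific binding.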

Mouse urotensin (mUR2) = molecular target: T2, Mouse urotensin (mUR2) (Mus musculus, UniProt Q8VIH9); assay: Radioligand binding, mouse urotensin mUR2 membranes, FlashPlate, [125I]-Urotensin II; settings: compound at 10 μM; mouse urotensin mUR2 membranes
T2 construct: purchased Perkin Elmer Biosignal
T2 sequence (Q8VIH9 1-385): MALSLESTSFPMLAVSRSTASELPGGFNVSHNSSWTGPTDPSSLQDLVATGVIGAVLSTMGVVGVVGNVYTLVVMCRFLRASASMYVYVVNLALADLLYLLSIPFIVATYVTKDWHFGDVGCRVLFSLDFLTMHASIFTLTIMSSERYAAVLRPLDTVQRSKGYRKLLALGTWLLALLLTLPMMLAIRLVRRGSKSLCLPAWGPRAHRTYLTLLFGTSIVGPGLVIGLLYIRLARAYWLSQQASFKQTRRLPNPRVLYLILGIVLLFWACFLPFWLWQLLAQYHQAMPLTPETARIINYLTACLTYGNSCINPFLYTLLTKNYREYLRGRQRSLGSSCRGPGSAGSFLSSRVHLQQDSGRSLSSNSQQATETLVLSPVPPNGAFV
In short: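 Cloned mouse urotensin (mUR2) receptor membranes from Perkin Elmer Biosignal were immobilized in FlashPlate microplates using a proprietary coating. Each well got 19.5 μl buffer, then 0.5 μl of DMSO, reference ligand, or compound. Adding 5 μl of [125I]-Urotensin II, diluted to 5× final concentration in binding buffer, started binding. Plates were sealed with TopSeal-A and incubated 1 hour at room temperature in the dark. Wells were counted for 30 seconds each on a TopCount after a 60-second delay, and percentage inhibition was calculated.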

Human Melanocortin (MC4) = molecular target: T3, Human Melanocortin (MC4) (Homo sapiens, UniProt P32245); assay: Radioligand binding, human melanocortin MC4 membranes, FlashPlate, [125I]-NDP-αMSH; settings: compound at 10 μM; human melanocortin MC4 membranes
T3 construct: purchased Perkin Elmer Biosignal
In short: as §1

Human opioid (ORL1) = molecular target: T4, Human opioid (ORL1) (Homo sapiens, UniProt P41146); assay: Radioligand binding, human opioid ORL1 membranes, FlashPlate, [125I]-Nociceptin; settings: compound at 10 μM; human ORL1 membranes
T4 construct: purchased Perkin Elmer Biosignal
In short: as §1

Human δ-opioid (DOP) = molecular target: T5, Human δ-opioid (DOP) (Homo sapiens, UniProt P41143); assay: Radioligand binding, human δ-opioid (DOP) membranes, FlashPlate, [3H]-Bremazocine; settings: compound at 10 μM; human δ-opioid (DOP) membranes
T5 construct: purchased Perkin Elmer Biosignal
In short: as §1

[1] = molecular target: T6, Human melanin-concentrating hormone (MCH1) (Homo sapiens, UniProt Q99705); assay: Radioligand binding, human melanin-concentrating hormone MCH1 membranes, FlashPlate, [125I]-S36057; settings: compound at 10 μM; human MCH1 membranes
T6 construct: purchased Perkin Elmer Biosignal
In short: as §1

Human μ-opioid (MOP) = molecular target: T7, Human μ-opioid (MOP) (Homo sapiens, UniProt P35372); assay: Radioligand binding, human μ-opioid (MOP) membranes, FlashPlate, [3H]-Naloxone; settings: compound at 10 μM; human μ-opioid (MOP) membranes
T7 construct: purchased Perkin Elmer Biosignal
In short: as §1

Human melanocortin (MC5) = molecular target: T8, Human melanocortin (MC5) (Homo sapiens, UniProt P33032); assay: Radioligand binding, human melanocortin MC5 membranes, FlashPlate, [125I]-NDP-αMSH; settings: compound at 10 μM; human melanocortin MC5 membranes
T8 construct: purchased Perkin Elmer Biosignal
In short: as §1

[2] = molecular target: T9, Human neuropeptide Y (NPY-Y1) (Homo sapiens, UniProt P25929); assay: Radioligand binding, human neuropeptide Y NPY-Y1 membranes, FlashPlate, [125I]-PYY; settings: compound at 10 μM; human NPY-Y1 membranes
T9 construct: purchased Perkin Elmer Biosignal
T9 sequence (P25929 1-384): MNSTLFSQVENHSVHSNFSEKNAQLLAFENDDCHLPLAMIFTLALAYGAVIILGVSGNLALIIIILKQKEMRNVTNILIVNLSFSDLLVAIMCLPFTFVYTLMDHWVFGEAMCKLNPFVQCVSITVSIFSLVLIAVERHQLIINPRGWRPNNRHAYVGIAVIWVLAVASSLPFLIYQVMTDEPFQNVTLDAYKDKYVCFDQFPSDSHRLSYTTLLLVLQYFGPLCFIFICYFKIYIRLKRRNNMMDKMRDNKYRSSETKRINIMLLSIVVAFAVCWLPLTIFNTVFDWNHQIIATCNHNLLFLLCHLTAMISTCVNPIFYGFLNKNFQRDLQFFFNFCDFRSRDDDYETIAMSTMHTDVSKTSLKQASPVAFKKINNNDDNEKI
In short: as §1

Human κ-Opioid (KOP) = molecular target: T10, Human κ-Opioid (KOP) (Homo sapiens, UniProt P41145); assay: Radioligand binding, human κ-opioid (KOP) membranes, filtration, [3H]-Diprenorphine; settings: compound at 10 μM; human κ-opioid (KOP) membranes
T10 construct: purchased Perkin Elmer Biosignal
In short: (§2)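 Percent inhibition of radioligand binding measured on recombinant human membranes: NK1 with [125I]-Substance P, KOP with [3H]-Diprenorphine. Incubation 1 h at room temperature, then harvest onto 0.3% PEI-soaked filters, cold Tris-HCl pH 7.4 washes and scintillation counting; non-specific binding from reference ligand wells.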

Human neurokinin (NK1) = molecular target: T11, Human neurokinin (NK1) (Homo sapiens, UniProt P25103); assay: Radioligand binding, human neurokinin NK1 membranes, filtration, [125I]-Substance P; settings: compound at 10 μM; human neurokinin NK1 membranes
T11 construct: purchased Perkin Elmer Biosignal
In short: as §2

T7 sequence (P35372 whole entry): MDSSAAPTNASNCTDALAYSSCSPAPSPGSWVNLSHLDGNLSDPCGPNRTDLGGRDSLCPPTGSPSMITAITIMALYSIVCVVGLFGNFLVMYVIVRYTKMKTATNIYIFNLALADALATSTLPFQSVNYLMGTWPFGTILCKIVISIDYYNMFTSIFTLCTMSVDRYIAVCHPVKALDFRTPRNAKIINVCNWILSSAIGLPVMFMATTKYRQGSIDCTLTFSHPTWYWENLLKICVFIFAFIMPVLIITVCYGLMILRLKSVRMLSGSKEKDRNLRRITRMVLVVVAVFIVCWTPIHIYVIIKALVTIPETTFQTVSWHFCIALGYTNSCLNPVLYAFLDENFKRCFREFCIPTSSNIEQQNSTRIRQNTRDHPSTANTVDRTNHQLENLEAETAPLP
T10 sequence (P41145 whole entry): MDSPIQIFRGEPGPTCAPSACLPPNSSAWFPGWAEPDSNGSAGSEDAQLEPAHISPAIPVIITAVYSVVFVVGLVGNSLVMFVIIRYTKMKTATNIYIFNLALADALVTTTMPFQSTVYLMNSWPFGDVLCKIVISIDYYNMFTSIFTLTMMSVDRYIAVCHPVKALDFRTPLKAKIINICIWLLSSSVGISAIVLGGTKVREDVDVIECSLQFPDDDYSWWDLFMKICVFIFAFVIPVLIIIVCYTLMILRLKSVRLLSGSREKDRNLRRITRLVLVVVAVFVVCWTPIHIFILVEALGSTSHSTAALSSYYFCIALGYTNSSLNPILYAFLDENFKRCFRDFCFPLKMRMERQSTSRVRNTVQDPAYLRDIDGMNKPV
T8 sequence (P33032 whole entry): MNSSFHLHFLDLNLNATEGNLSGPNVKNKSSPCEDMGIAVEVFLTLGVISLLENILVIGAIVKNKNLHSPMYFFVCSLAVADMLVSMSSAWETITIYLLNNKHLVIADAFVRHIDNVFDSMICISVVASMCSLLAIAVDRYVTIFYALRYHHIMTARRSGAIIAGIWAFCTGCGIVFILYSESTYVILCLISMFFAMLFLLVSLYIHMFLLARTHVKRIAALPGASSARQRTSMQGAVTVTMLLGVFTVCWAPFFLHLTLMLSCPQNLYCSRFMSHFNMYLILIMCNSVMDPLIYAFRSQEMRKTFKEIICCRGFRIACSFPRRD
T4 sequence (P41146 whole entry): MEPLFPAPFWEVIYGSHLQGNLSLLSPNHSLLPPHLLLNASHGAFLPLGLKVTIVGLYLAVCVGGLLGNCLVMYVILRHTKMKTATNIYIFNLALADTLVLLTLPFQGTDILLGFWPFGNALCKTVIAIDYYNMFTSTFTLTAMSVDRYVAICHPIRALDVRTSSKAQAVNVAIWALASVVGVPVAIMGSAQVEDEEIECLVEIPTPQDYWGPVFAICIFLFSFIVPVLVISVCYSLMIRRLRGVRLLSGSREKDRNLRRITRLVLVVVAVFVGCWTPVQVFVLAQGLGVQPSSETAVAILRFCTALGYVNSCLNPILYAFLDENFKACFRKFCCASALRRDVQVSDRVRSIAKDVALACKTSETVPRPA
T6 sequence (Q99705 whole entry): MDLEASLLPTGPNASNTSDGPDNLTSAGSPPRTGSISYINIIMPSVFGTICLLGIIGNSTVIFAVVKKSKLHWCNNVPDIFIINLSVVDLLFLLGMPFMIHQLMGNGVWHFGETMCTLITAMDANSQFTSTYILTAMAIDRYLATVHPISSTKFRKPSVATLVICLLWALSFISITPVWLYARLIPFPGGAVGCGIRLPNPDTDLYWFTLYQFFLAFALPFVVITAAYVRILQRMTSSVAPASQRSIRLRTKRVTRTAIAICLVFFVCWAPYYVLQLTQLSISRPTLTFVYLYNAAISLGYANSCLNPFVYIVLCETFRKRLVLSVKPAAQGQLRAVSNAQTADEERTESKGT
T3 sequence (P32245 whole entry): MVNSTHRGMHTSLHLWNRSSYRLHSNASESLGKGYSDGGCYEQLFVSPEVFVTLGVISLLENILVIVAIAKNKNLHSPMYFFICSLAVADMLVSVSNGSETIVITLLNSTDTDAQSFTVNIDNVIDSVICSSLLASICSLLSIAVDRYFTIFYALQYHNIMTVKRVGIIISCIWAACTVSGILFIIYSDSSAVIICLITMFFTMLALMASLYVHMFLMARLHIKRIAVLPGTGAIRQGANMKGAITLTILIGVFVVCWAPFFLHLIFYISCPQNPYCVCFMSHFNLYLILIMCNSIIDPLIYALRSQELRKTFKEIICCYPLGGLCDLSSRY
T5 sequence (P41143 whole entry): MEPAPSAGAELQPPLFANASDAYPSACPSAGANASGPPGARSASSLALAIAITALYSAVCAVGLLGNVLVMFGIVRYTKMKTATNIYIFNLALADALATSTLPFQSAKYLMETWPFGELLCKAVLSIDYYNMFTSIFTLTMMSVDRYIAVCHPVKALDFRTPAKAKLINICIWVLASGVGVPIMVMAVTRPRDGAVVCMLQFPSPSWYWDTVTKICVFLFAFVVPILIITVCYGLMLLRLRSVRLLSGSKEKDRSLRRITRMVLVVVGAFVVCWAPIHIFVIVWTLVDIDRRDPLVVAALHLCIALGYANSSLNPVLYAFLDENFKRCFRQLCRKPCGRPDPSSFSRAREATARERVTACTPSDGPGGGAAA
T11 sequence (P25103 whole entry): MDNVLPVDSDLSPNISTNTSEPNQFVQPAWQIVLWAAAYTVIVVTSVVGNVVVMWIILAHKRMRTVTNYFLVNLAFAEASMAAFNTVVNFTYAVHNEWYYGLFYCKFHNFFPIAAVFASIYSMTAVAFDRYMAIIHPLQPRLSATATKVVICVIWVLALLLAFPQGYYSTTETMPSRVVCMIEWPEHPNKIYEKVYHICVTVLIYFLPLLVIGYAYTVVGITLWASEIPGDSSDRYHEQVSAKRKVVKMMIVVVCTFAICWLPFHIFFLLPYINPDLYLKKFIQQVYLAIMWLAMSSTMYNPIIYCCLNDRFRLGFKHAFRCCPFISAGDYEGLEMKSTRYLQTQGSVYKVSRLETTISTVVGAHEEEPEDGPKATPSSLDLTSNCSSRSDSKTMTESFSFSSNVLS
T1 sequence (P41968 whole entry): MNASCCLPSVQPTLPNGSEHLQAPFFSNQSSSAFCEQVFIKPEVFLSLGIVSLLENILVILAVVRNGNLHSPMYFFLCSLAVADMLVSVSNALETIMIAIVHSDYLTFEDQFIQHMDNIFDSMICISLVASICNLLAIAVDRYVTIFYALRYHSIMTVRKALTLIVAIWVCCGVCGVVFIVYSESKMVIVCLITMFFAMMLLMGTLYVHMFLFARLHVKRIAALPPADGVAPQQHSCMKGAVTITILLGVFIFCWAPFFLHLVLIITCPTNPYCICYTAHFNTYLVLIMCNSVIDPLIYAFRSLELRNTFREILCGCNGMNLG

SMILES	A3 radioligand binding inhibition (Human Melanocortin (MC3))	A11 radioligand binding inhibition (Mouse urotensin (mUR2))	A4 radioligand binding inhibition (Human Melanocortin (MC4))	A10 radioligand binding inhibition (Human opioid (ORL1))	A1 radioligand binding inhibition (Human δ-opioid (DOP))	A6 radioligand binding inhibition [1]	A7 radioligand binding inhibition (Human μ-opioid (MOP))	A5 radioligand binding inhibition (Human melanocortin (MC5))	A9 radioligand binding inhibition [2]	A2 radioligand binding inhibition (Human κ-Opioid (KOP))	A8 radioligand binding inhibition (Human neurokinin (NK1))
CO[C@H]1[C@H](O)[C@@H](COCc2ccc3ccccc3c2)OC(OCc2ccc3ccccc3c2)[C@@H]1NC(=O)CCCNC(=N)N (stereo partly drawn) [compound 73]	− (“−” indicates less than 50% inhibition at 10 μM)	− (“−” indicates less than 50% inhibition at 10 μM)	− (“−” indicates less than 50% inhibition at 10 μM)	+ (“+” indicates greater than 50% inhibition at 10 μM)	− (“−” indicates less than 50% inhibition at 10 μM)	− (“−” indicates less than 50% inhibition at 10 μM)	+ (“+” indicates greater than 50% inhibition at 10 μM)	+ (“+” indicates greater than 50% inhibition at 10 μM)	− (“−” indicates less than 50% inhibition at 10 μM)	+ (“+” indicates greater than 50% inhibition at 10 μM)	+ (“+” indicates greater than 50% inhibition at 10 μM)
CO[C@H]1[C@H](O)[C@@H](COCc2ccccc2)OC(OCc2ccc3ccccc3c2)[C@@H]1NC(=O)CNC(=N)N (stereo partly drawn) [compound 74]	− (“−” indicates less than 50% inhibition at 10 μM)	− (“−” indicates less than 50% inhibition at 10 μM)	− (“−” indicates less than 50% inhibition at 10 μM)	− (“−” indicates less than 50% inhibition at 10 μM)	− (“−” indicates less than 50% inhibition at 10 μM)	− (“−” indicates less than 50% inhibition at 10 μM)	+ (“+” indicates greater than 50% inhibition at 10 μM)	+ (“+” indicates greater than 50% inhibition at 10 μM)	− (“−” indicates less than 50% inhibition at 10 μM)	− (“−” indicates less than 50% inhibition at 10 μM)	+ (“+” indicates greater than 50% inhibition at 10 μM)
CO[C@H]1[C@H](O)[C@@H](COCc2ccccc2)OC(OCc2ccc3ccccc3c2)[C@@H]1NC(=O)CCNC(=N)N (stereo partly drawn) [compound 75]	− (“−” indicates less than 50% inhibition at 10 μM)	− (“−” indicates less than 50% inhibition at 10 μM)	− (“−” indicates less than 50% inhibition at 10 μM)	− (“−” indicates less than 50% inhibition at 10 μM)	− (“−” indicates less than 50% inhibition at 10 μM)	− (“−” indicates less than 50% inhibition at 10 μM)	+ (“+” indicates greater than 50% inhibition at 10 μM)	− (“−” indicates less than 50% inhibition at 10 μM)	− (“−” indicates less than 50% inhibition at 10 μM)	− (“−” indicates less than 50% inhibition at 10 μM)	+ (“+” indicates greater than 50% inhibition at 10 μM)
CO[C@H]1[C@H](O)[C@@H](COCc2ccccc2)OC(OCc2ccc3ccccc3c2)[C@@H]1NC(=O)CCCN (stereo partly drawn) [compound 76]	− (“−” indicates less than 50% inhibition at 10 μM)	− (“−” indicates less than 50% inhibition at 10 μM)	− (“−” indicates less than 50% inhibition at 10 μM)	− (“−” indicates less than 50% inhibition at 10 μM)	− (“−” indicates less than 50% inhibition at 10 μM)	− (“−” indicates less than 50% inhibition at 10 μM)	− (“−” indicates less than 50% inhibition at 10 μM)	− (“−” indicates less than 50% inhibition at 10 μM)	− (“−” indicates less than 50% inhibition at 10 μM)	− (“−” indicates less than 50% inhibition at 10 μM)	+ (“+” indicates greater than 50% inhibition at 10 μM)
CO[C@H]1[C@H](O)[C@@H](COCc2ccccc2)OC(OCc2ccc3ccccc3c2)[C@@H]1NC(=O)CCCNC(=N)N (stereo partly drawn) [compound 77]	− (“−” indicates less than 50% inhibition at 10 μM)	− (“−” indicates less than 50% inhibition at 10 μM)	− (“−” indicates less than 50% inhibition at 10 μM)	− (“−” indicates less than 50% inhibition at 10 μM)	− (“−” indicates less than 50% inhibition at 10 μM)	− (“−” indicates less than 50% inhibition at 10 μM)	+ (“+” indicates greater than 50% inhibition at 10 μM)	+ (“+” indicates greater than 50% inhibition at 10 μM)	− (“−” indicates less than 50% inhibition at 10 μM)	− (“−” indicates less than 50% inhibition at 10 μM)	+ (“+” indicates greater than 50% inhibition at 10 μM)
CO[C@H]1[C@H](O)[C@@H](COCc2ccc(Cl)cc2)OC(OCc2ccc3ccccc3c2)[C@@H]1NC(=O)CNC(=N)N (stereo partly drawn) [compound 78]	− (“−” indicates less than 50% inhibition at 10 μM)	− (“−” indicates less than 50% inhibition at 10 μM)	− (“−” indicates less than 50% inhibition at 10 μM)	− (“−” indicates less than 50% inhibition at 10 μM)	− (“−” indicates less than 50% inhibition at 10 μM)	− (“−” indicates less than 50% inhibition at 10 μM)	− (“−” indicates less than 50% inhibition at 10 μM)	+ (“+” indicates greater than 50% inhibition at 10 μM)	− (“−” indicates less than 50% inhibition at 10 μM)	− (“−” indicates less than 50% inhibition at 10 μM)	+ (“+” indicates greater than 50% inhibition at 10 μM)
